We go through one molecule from BindingDB's records for PubMed 10454469 (Universidad De Sevilla, 1999).

“And” between values parts separate entries of the source, which are not always exact repeats. Equal entries are not always repeated.

For this experiment, the target named is Gamma-aminobutyric acid receptor subunit alpha-1 (Rattus norvegicus, UniProt P62813).
Sequence of Gamma-aminobutyric acid receptor subunit alpha-1 (P62813 whole entry): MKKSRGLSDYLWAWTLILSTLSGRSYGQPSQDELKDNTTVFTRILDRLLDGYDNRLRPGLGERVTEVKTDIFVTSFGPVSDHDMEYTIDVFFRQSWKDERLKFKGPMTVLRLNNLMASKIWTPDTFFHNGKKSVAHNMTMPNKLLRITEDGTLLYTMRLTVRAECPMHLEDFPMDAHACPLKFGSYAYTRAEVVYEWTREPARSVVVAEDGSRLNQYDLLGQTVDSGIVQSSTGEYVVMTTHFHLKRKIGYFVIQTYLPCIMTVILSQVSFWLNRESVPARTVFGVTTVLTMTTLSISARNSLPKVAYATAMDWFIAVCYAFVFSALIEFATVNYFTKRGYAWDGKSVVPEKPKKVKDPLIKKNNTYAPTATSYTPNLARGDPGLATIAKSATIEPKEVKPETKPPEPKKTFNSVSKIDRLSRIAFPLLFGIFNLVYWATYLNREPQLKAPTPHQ

A word on the Ki: it is the equilibrium dissociation constant of an inhibitor or competing ligand from its target. Lower therefore signals higher affinity. On to `Cc1nnc2ccc(-c3cccc(C(F)(F)F)c3)nn12`, for which the Ki was 0.7 nM and 0.81 nM.
